# In US8278349B2, “Cancer treatment using FTS and 2-deoxyglucose” (Ramot at Tel-Aviv University Ltd., priority 2005, dated 2012):
# Assays:
# [1] = system: pancreatic carcinoma cell line panc-1; test: Cell death by Hoechst 33258 staining, panc-1; type: cell-based; conditions: for percentage of dead cells: panc-1
# Method: (§1) All materials for cell culture and determination of cell growth and death were detailed in earlier publications. [Blum, R., Jacob-[…]. and Kloog, Y., Cancer Res 65:999-1006 (2005); […]., Jacob-[…]. and Kloog, Y., Clin Cancer Res 11:4321-30 (2005)]. FTS was provided by Concordia Pharmaceuticals, Inc. 2DG was purchased from Sigma (cat #D3179). Cells were maintained in DMEM/10% FCS at a constant temperature of 37° C. in a humidified atmosphere of 95% air/5% CO2. Cells were plated in 1 ml DMEM/5% FCS at a density of 10,000 in 24 wells plates, and treated 24 hours (h) later with 50 μM or 75 μM FTS or with the vehicle (0.1% Me2SO). Forty-eight (48) h later the medium was replaced by a medium containing either 10 mM glucose or 5 mM glucose plus 5 mM 2DG. The FTS treated groups were replenished with the drug and the controls with 0.1% Me2SO. Following incubation for 24 or 48 h, as specified in each experiment, the cells were stained with Hoechst 33258 (1 μg/mL) to determine the extent of cell death; the cells were incubated with the reagent for 5 min and stained nuclei were visualized by a fluorescence microscope. Additionally, phase contrast images were taken. All experiments were performed and repeated at least four times. Data were collected by imaging each well then analyzed as follows: the total number of cells was calculated of the phase contrast images and the number of dead cells was calculated of the fluorescence images. The percentage of Hoechst stained dead cells ([dead cells/total number of cells]×100) was calculated and presented as means±SD.
# [2] = system: pancreatic carcinoma cell line panc-1; test: Cell number from phase contrast images, panc-1; type: cell-based
# Method: (§2) All materials for cell culture and determination of cell growth and death were detailed in earlier publications. [Blum, R., Jacob-Hirsch, J., Amariglio, N., Rechavi, G. and Kloog, Y., Cancer Res 65:999-1006 (2005); Yaari, S., Jacob-Hirsch, J., Amariglio, N., Haklai, R., Rechavi, G. and Kloog, Y., Clin Cancer Res 11:4321-30 (2005)]. FTS was provided by Concordia Pharmaceuticals, Inc. 2DG was purchased from Sigma (cat #D3179). Cells were maintained in DMEM/10% FCS at a constant temperature of 37° C. in a humidified atmosphere of 95% air/5% CO2. Cells were plated in 1 ml DMEM/5% FCS at a density of 10,000 in 24 wells plates, and treated 24 hours (h) later with 50 μM or 75 μM FTS or with the vehicle (0.1% Me2SO). […] Following incubation for 24 or 48 h, as specified in each experiment, the cells were stained with Hoechst 33258 (1 μg/mL) to determine the extent of cell death; the cells were incubated with the reagent for 5 min and stained nuclei were visualized by a fluorescence microscope. […]
# (§3) All experiments were performed and repeated at least four times. Data were collected by imaging each well then analyzed as follows: the total number of cells was calculated of the phase contrast images and the number of dead cells was calculated of the fluorescence images. The percentage of Hoechst stained dead cells ([dead cells/total number of cells]×100) was calculated and presented as means±SD.
# [3] = system: primary pancreatic tumor cell line pp109; test: Cell death by Hoechst 33258 staining, pp109; type: cell-based; conditions: single-drug or combined treatment
# Method: as §1, with “The FTS treated groups were replenished with the drug and the controls with 0.1% Me2SO.” left out, “Additionally, phase contrast images were taken. All experiments were performed and repeated at least four times.” left out
# [4] = system: primary pancreatic tumor cell line pp109; test: Cell number from phase contrast images, pp109; type: cell-based
# Method: as §2, §3
# [5] = system: primary pancreatic tumor cell line pp161; test: Cell death by Hoechst 33258 staining, pp161; type: cell-based; conditions: single-drug or combined treatment
# Method: as §1, with “The FTS treated groups were replenished with the drug and the controls with 0.1% Me2SO.” left out, “Additionally, phase contrast images were taken. All experiments were performed and repeated at least four times.” left out
# [6] = system: primary pancreatic tumor cell line pp161; test: Cell number from phase contrast images, pp161; type: cell-based
# Method: as §2, §3
# [7] = system: primary pancreatic tumor cell line pp 78; test: Cell death by Hoechst 33258 staining, pp 78; type: cell-based; conditions: single-drug or combined treatment
# Method: as §1, with “The FTS treated groups were replenished with the drug and the controls with 0.1% Me2SO.” left out, “Additionally, phase contrast images were taken. All experiments were performed and repeated at least four times.” left out
# [8] = system: primary pancreatic tumor cell line pp 78; test: Cell number from phase contrast images, pp 78; type: cell-based
# Method: as §2, §3
# [9] = system: human glioblastoma cell line U87; test: Cell death by Hoechst 33258 staining, U87; type: cell-based; conditions: single or combined treatment
# Method: as §1, with “The FTS treated groups were replenished with the drug and the controls with 0.1% Me2SO.” left out, “Additionally, phase contrast images were taken. All experiments were performed and repeated at least four times.” left out
# [10] = system: human glioblastoma cell line U87; test: Cell number from phase contrast images, U87; type: cell-based; conditions: single or combined treatment
# Method: as §1, with “The FTS treated groups were replenished with the drug and the controls with 0.1% Me2SO.” left out, “Additionally, phase contrast images were taken. All experiments were performed and repeated at least four times.” left out
# [11] = system: human glioblastoma cell line U373; test: Cell death by Hoechst 33258 staining, U373; type: cell-based; conditions: single or combined treatment
# Method: as §1, with “The FTS treated groups were replenished with the drug and the controls with 0.1% Me2SO.” left out, “Additionally, phase contrast images were taken. All experiments were performed and repeated at least four times.” left out
# [12] = system: human glioblastoma cell line U373; test: Cell number from phase contrast images, U373; type: cell-based; conditions: single or combined treatment
# Method: as §1, with “The FTS treated groups were replenished with the drug and the controls with 0.1% Me2SO.” left out, “Additionally, phase contrast images were taken. All experiments were performed and repeated at least four times.” left out
# panc-1 cells = conditions: cited from earlier work
# Mia Paca cells = conditions: cited from earlier work
# GBM cells = conditions: reported (Blum 2005; Yaari 2005); cited from earlier work
# [13] = previously shown (Kloog and Cox 2000)
smiles,measurement,setting,value
"CC(C)=CCC/C(C)=C/CC/C(C)=C/CSc1ccccc1C(=O)O [FTS, farnesylthiosalicylic acid]",percentage of dead cells,[1]; 50 μM FTS alone (10 mM glucose),4%
same,percentage of dead cells,[1]; 75 μM FTS alone (10 mM glucose),7%
same,decrease in cell number,[2]; 75 μM FTS alone,~2 fold
same,cell death above the levels observed in the controls,[3],induced death
same,decrease in the total number of cells,[4]; 75 μM FTS alone,~2 fold
same,cell death above the levels observed in the controls,[5],did not cause a significant increase in death
same,decrease in the total number of cells,[6]; 75 μM FTS alone,~2 fold
same,cell death above the levels observed in the controls,[7],did not cause a significant increase in death
same,decrease in the total number of cells,[8]; 75 μM FTS alone,~2 fold
same,cell death,[9],no significant increase in cell death
same,total cell number,[10],induced a decrease in total cell number
same,cell death,[11],no significant increase in cell death
same,total cell number,[12],induced a decrease in total cell number
same,cell death,panc-1 cells; FTS alone,did not induce death
same,anchorage-dependent and anchorage-independent growth,panc-1 cells; [13],inhibit anchorage-dependent and anchorage-independent growth
same,cell death,Mia Paca cells; FTS alone,did not induce death
same,anchorage-dependent and anchorage-independent growth,Mia Paca cells; [13],inhibit anchorage-dependent and anchorage-independent growth
same,growth arrest and cell death,GBM cells,induce both growth arrest and cell death
"OCC1OC(O)CC(O)C1O [2DG, 2-deoxy-D-glucose, reference compound]",cell survival,"[1]; 2DG (5 mM) combined with equimolar glucose, cell death similar to controls (3%)",did not affect cell survival
same,percentage of dead cells,[1]; 2DG alone (5 mM glucose plus 5 mM 2DG),3%
same,decrease in cell number,"[2]; 2DG alone, compared with FTS","decrease in cell number, but to a lower extent"
same,cell death above the levels observed in the controls,[3],induced death
same,decrease in cell number,"[4]; 2DG alone, compared with FTS","decrease in cell number, but to a lower extent"
same,cell death above the levels observed in the controls,[5],did not cause a significant increase in death
same,decrease in cell number,"[6]; 2DG alone, compared with FTS","decrease in cell number, but to a lower extent"
same,cell death above the levels observed in the controls,[7],did not cause a significant increase in death
same,decrease in cell number,"[8]; 2DG alone, compared with FTS","decrease in cell number, but to a lower extent"
same,cell death,[9],no significant increase in cell death
same,total cell number,[10],induced a decrease in total cell number
same,cell death,[11],no significant increase in cell death
same,total cell number,[12],induced a decrease in total cell number
